Reference: ChEMBL document CHEMBL4011599, “Coumarin sulfonates: New alkaline phosphatase inhibitors; in vitro and in silico studies” (Eur J Med Chem, 2017)

biological target: T1, Alkaline phosphatase, tissue-nonspecific isozyme (Homo sapiens, UniProt P05186); assay: Inhibition of human TNAP using CDP-star as substrate pretreated for 10 mins followed by substrate addition measured after 10 mins by […] method; details: not given
T1 sequence (P05186 whole entry): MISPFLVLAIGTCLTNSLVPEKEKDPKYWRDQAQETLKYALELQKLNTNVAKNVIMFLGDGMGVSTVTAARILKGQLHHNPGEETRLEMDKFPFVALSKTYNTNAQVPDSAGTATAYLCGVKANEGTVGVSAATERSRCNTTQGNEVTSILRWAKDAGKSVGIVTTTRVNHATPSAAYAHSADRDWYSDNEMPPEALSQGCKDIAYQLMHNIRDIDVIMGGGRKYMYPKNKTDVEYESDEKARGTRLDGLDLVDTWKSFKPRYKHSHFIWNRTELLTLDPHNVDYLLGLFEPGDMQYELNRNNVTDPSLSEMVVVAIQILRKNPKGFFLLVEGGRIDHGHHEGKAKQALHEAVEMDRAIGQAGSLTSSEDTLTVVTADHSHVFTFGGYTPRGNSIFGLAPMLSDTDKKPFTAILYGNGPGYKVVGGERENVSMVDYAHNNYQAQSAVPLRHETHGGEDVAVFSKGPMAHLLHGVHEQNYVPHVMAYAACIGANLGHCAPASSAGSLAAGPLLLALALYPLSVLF

Structure (SMILES)	IC50
CCS(=O)(=O)Oc1ccc2c(C)c(C#N)c(=O)oc2c1	Not Active

same assay, conditions: read-out: IC50

Structure (SMILES)	IC50 [nM]
Cc1c(Cl)c(=O)oc2cc(OS(=O)(=O)c3ccccc3)ccc12	10300
Cc1c(C#N)c(=O)oc2cc(OS(C)(=O)=O)ccc12	1990
Cc1cc(=O)oc2cc(OS(=O)(=O)c3ccc(Cl)c([N+](=O)[O-])c3)ccc12	2310
CCCCS(=O)(=O)Oc1ccc2c(C)c(Cl)c(=O)oc2c1	1640
Cc1c(C#N)c(=O)oc2cc(OS(=O)(=O)c3cc(Cl)ccc3Cl)ccc12	2470
Cc1c(C#N)c(=O)oc2cc(OS(=O)(=O)c3cccc([N+](=O)[O-])c3)ccc12	2420
CCCCCCCCS(=O)(=O)Oc1ccc2c(C)cc(=O)oc2c1OS(=O)(=O)CCCCCCCC	920
CCCCCCCCS(=O)(=O)Oc1ccc2c(C)c(C#N)c(=O)oc2c1	920
Cc1c(C#N)c(=O)oc2cc(OS(=O)(=O)c3ccccc3)ccc12	3530
N[C@@H](Cc1ccccc1)C(=O)O [PHENYLALANINE]	100000

biological target: T2, Intestinal-type alkaline phosphatase (Homo sapiens, UniProt P09923); assay: Potency index, ratio of levamisole IC50 to compound IC50 for human IAP; details: not given
Target sequence in this assay (P09923 20-503 limits assumed): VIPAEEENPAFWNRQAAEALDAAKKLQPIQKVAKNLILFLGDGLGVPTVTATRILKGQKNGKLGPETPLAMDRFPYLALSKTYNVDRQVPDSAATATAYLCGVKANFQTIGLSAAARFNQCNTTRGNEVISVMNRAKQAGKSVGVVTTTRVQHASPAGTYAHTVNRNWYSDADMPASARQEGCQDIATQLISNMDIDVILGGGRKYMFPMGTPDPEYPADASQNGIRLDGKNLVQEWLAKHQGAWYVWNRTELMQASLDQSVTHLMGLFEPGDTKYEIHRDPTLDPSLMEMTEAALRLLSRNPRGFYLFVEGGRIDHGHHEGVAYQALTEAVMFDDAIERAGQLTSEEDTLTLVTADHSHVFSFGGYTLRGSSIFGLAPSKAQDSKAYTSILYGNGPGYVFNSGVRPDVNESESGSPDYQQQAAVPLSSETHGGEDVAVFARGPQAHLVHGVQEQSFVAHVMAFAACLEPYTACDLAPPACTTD

Structure (SMILES)	Ratio IC50
CCCCCCCCS(=O)(=O)Oc1ccc2c(C)c(C#N)c(=O)oc2c1	7

biological target: T2, Intestinal-type alkaline phosphatase; assay: Inhibition of human IAP using CDP-star as substrate pretreated for 10 mins followed by substrate addition measured after 10 mins by […] method; details: not given
Target sequence in this assay (P09923 whole entry): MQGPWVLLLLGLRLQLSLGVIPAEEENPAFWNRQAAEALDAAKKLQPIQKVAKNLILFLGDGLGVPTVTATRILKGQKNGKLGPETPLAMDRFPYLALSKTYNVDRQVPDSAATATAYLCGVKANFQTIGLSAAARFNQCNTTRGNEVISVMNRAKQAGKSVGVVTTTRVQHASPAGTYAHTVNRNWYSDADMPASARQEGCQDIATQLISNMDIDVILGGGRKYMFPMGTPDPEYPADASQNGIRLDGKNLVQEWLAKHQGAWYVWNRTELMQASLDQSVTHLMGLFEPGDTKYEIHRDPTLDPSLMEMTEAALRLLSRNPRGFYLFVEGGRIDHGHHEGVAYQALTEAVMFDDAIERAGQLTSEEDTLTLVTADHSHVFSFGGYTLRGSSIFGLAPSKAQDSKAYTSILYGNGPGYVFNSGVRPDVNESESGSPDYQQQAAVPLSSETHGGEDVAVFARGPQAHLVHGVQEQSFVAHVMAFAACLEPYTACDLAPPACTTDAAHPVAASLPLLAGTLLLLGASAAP

Structure (SMILES)	IC50
Cc1c(C#N)c(=O)oc2cc(OS(C)(=O)=O)ccc12	Not Active
Cc1c(C#N)c(=O)oc2cc(OS(=O)(=O)c3ccccc3)ccc12	Not Active

same assay, conditions: read-out: IC50

Structure (SMILES)	IC50 [nM]
Cc1c(Cl)c(=O)oc2cc(OS(=O)(=O)c3ccccc3)ccc12	5520
Cc1cc(=O)oc2cc(OS(=O)(=O)c3ccc(Cl)c([N+](=O)[O-])c3)ccc12	2720
CCCCS(=O)(=O)Oc1ccc2c(C)c(Cl)c(=O)oc2c1	3220
Cc1c(C#N)c(=O)oc2cc(OS(=O)(=O)c3cc(Cl)ccc3Cl)ccc12	2260
Cc1c(C#N)c(=O)oc2cc(OS(=O)(=O)c3cccc([N+](=O)[O-])c3)ccc12	5160
c1ccc([C@H]2CN3CCSC3=N2)cc1 [LEVAMISOLE]	20200
CCCCCCCCS(=O)(=O)Oc1ccc2c(C)cc(=O)oc2c1OS(=O)(=O)CCCCCCCC	10300
CCS(=O)(=O)Oc1ccc2c(C)c(C#N)c(=O)oc2c1	4060
CCCCCCCCS(=O)(=O)Oc1ccc2c(C)c(C#N)c(=O)oc2c1	2810
